Results on 15 compounds are retold here after patent US9127044B2, “Cyclic depsipeptides” (NOVARTIS AG, priority 2007, dated 2015).

The structures appear in SMILES notation. pIC50: −log10 of the molar value. Where two headings read alike, the source gives them in different places. *1 amine or outer side, *2 acyl side, *3 side chain or, on linkers, in order; H or OH if unused. Where a SMILES comes first, the peptide text is derived from it. Bridges are numbered along the chain shown (N, C = ends). [ ]: non-standard residue; d: D form. The star is where a group is joined. ξ: configuration not given here. X1 = O=C([C@@H]1CC[C@H](O)N1[*:1])[*:2]; NMeY = CN[C@@H](Cc1ccc(O)cc1)C(=O)O; Butanoyl(2ξ-Me) = CCC(C)C(=O)*; Ile(3ξ) = CCC(C)[C@H](N)C(=O)O; Isovaleryl = CC(C)CC(=O)*; Isobutyryl = CC(C)C(=O)*

The target of assay [1] is human kallikrein 7 (Homo sapiens, UniProt P49862). The assay can be described thus: Kallikrein-7 inhibitory activity in vitro (fluorescence-quenched substrate). It counts as biochemical. The protocol:
(§1) IC50 for human kallikrein can be measured using the fluorescence-quenched substrate Ac-Glu-Asp(EDANS)-Lys-Pro-Ale-Leu-Phe^Arg-Leu-Gly-Lys(DABCYL)-Glu-NH2 (where ^ indicates the scissile bond, identified by MS analysis) which can be purchased from Biosyntan (Berlin, Germany). Enzymatic reactions are conducted in 50 mM sodium citrate buffer at pH 5.6 containing 150 mM NaCl and 0.05% (w/v) CHAPS. For the determination of IC50 values the assay is performed at room temperature in 384-well plates. All final assay volumes are 30 μl. Test compounds are dissolved in 90% (v/v) DMSO/water and diluted in water (containing 0.05% (w/v) CHAPS) to 3-times the desired assay concentration. The 11 final compound concentrations are: 0.3 nM, 1 nM, 3 nM, 10 nM, 30 nM, 100 nM, 300 nM, 1 μM, 3 μM, 10 μM and 30 μM. For each assay, 10 μl water/CHAPS (±test compound) are added per well, followed by 10 μl protease solution (diluted with 1.5× assay buffer). The protease concentration in final assay solution is 0.2 nM (according to the enzyme concentrations determined by the Bradford method). After 1 hour of incubation at room temperature, the reaction is started by addition of 10 μl substrate solution (substrate dissolved in 1.5× assay buffer, final concentration is 2 μM). […] The IC50 value is calculated from the plot of percentage of inhibition vs. inhibitor concentration using non-linear regression analysis software (XLfit, Vers. 4.0; ID Business Solution Ltd., Guildford, Surrey, UK).
The fluorescence-quenched substrate Ac-Glu-Asp(EDANS)-Lys-Pro-Ale-Leu-Phe^Arg-Leu-Gly-Lys(DABCYL)-Glu-NH2 (where ^ indicates the scissile bond, identified by MS analysis) is purchased from Biosyntan (Berlin, Germany) and kept as a 5 mM stock solution in DMSO at −20° C. All other chemicals are of analytical grade.
Enzymatic reactions are conducted in 50 mM sodium citrate buffer at pH 5.6 containing 150 mM NaCl and 0.05% (w/v) CHAPS.
All protein and peptide containing solutions are handled in siliconized tubes (Life Systems Design, Merenschwand, Switzerland). The compound solutions as well as the enzyme and the substrate solutions are transferred to the 384-well plates (black Cliniplate; cat. no. 95040020 Labsystems Oy, Finland) by means of a CyBi-Well 96-channel pipettor (CyBio AG, Jena, Germany).
(§2) For fluorescence intensity (FI) measurements an Ultra Evolution reader (TECAN, Maennedorf, Switzerland) is used. The instrument is equipped with a combination of a 350 nm (20 nm bandwidth) and a 500 nm (25 nm bandwidth) bandpass filter for fluorescence excitation and emission acquisition, respectively. To increase the signal:background ratio, an appropriate dichroic mirror is employed. The optical filters and the dichroic mirror are purchased from TECAN. The fluorophores in each well are excited by three flashes per measurement.
as §1, with “For” for “IC50 for human kallikrein can be measured using the fluorescence-quenched substrate Ac-Glu-Asp(EDANS)-Lys-Pro-Ale-Leu-Phe^Arg-Leu-Gly-Lys(DABCYL)-Glu-NH2 (where ^ indicates the scissile bond, identified by MS analysis) which can be purchased from Biosyntan (Berlin, Germany). Enzymatic reactions are conducted in 50 mM sodium citrate buffer at pH 5.6 containing 150 mM NaCl and 0.05% (w/v) CHAPS. For”, “volumes were” for “volumes are”, “concentration was” for “concentration is”

Assay [2] addresses T1, Human neutrophil elastase (Homo sapiens, UniProt P08246).
T1 construct: purchased Elastin Products Company, Inc. (EPC, Owensville, USA) SE563
T1 sequence (P08246 30-267): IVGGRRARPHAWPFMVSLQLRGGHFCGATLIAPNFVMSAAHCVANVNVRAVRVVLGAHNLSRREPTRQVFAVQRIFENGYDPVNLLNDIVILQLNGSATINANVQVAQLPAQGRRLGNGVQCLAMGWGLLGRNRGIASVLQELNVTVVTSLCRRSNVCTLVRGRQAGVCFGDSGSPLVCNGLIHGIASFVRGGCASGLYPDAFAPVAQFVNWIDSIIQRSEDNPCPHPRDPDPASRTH
The assay can be described thus: HNE inhibitory activity in vitro (fluorescence-quenched substrate). It counts as biochemical. The protocol: Human neutrophil elastase (cat. no. SE563) is purchased from Elastin Products Company, Inc. (EPC, Owensville, USA). The dry powder (purity >95% stated by the supplier) was dissolved in 20 mM sodium acetate buffer, pH 5.0, 50% (v/v) glycerol, and frozen at −80° C. in aliquots.
The fluorescence-quenched substrate (DABCYL-Ser-Glu-Val^Asn-Leu-Asp-Ala-Glu-Phe-EDANS, where ^ indicates the scissile bond, identified by MS analysis) was purchased from Bachem AG (Bubendorf, Switzerland), and kept as a 5 mM stock solution in DMSO at −20° C. All other chemicals were of analytical grade.
Enzymatic reactions were conducted in 100 mM Tris/HCl buffer at pH 7.5, containing 500 mM NaCl, and 0.05% (w/v) CHAPS.
All protein and peptide containing solutions are handled in siliconized tubes (Life Systems Design, Merenschwand, Switzerland).
The compound solutions as well as the enzyme and the substrate solutions are transferred to the 384-well plates (black Cliniplate; cat. no. 95040020 Labsystems Oy, Finland) by means of a CyBi-Well 96-channel pipettor (CyBio AG, Jena, Germany).
as §2

For assay [3], the system named is Crl:NMRI mice. The assay can be described thus: Anti-inflammatory activity in murine model of allergic contact dermatitis (ACD), oxazolone. It counts as in vivo. On the procedure:
Method: Crl:NMRI mice were sensitized on the shaved abdomen with 50 μl of 2% oxazolone on day 1 and challenged with 10 μl oxazolone on the inner surface of the right ear on day 8. The unchallenged left ears served as normal controls and dermatitis was evaluated from the difference in auricular weight (taken as a measure of inflammatory swelling) on day 9. The animals were treated topically with 10 μl test compound or the solvent only 30 min after the challenge. The efficacy of the treatment was calculated as the percentage inhibition of inflammatory auricular swelling relative to animals treated with the vehicle alone.

[4] abbreviates: Table 14, concentration of test compound 10 mM.
Where [5] appears, read: Table 14, concentration of test compound 30 mM.
Setting [6] is: Table 11, read-out: hKallikrein7 IC 50.
The mark [7] stands for this setting: Table 11, read-out: human neutrophile elastase IC 50.

Sequence of human kallikrein 7 (P49862 30-253): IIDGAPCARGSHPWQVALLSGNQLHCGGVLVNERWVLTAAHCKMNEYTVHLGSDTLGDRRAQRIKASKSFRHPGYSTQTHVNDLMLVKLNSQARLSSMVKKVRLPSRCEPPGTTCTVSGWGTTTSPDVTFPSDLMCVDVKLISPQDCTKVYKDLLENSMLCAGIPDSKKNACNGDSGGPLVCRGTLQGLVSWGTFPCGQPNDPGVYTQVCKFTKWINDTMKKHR

In the case of `CCC(C)C1NC(=O)C(Cc2ccc(O)cc2)N(C)C(=O)C(C(C)CC)N2C(=O)C(CCC2OCc2ccccc2)NC(=O)C(CC(C)C)NC(=O)C(NC(=O)C(CCC(N)=O)NC(=O)C(C)C)C(C)OC1=O` (centres unmarked) [example 9], the pIC50 in assay [1] (hKallikrein7 IC 50, Table 11) was 8.70; in assay [2] it was 8.52. In addition, the results for the “% Inhibition of inflammatory swelling” value in assay [3] (setting [4]) and in assay [3] (setting [5]) were 42% and 38%, respectively.
The like results for `CCOC1CCC2NC(=O)C(CC(C)C)NC(=O)C(NC(=O)C(CCC(N)=O)NC(=O)C(C)C)C(C)OC(=O)C(C(C)CC)NC(=O)C(Cc3ccc(O)cc3)N(C)C(=O)C(C(C)CC)N1C2=O` (centres unmarked) [example 10] were, in that order, 8.46, 8.05, 22% and 25%.
With `CCC(C)[C@@H]1NC(=O)[C@H](Cc2ccc(OCC(=O)NCCOCCOCC(=O)OC(C)(C)C)cc2)N(C)C(=O)[C@H](C(C)CC)N2CCCC(NC(=O)[C@H](CC(C)C)NC(=O)[C@@H](NC(=O)[C@H](CCC(N)=O)NC(=O)C(C)C)[C@@H](C)OC1=O)C2=O` (some centres unmarked) [example 44], the values for the pIC50 in assay [1] (setting [6]) and in assay [2] (setting [7]) were 8.46 and 8.05, respectively.
The like results for `CCCOC1CCC2NC(=O)C(CC(C)C)NC(=O)C(NC(=O)C(CCC(N)=O)NC(=O)C(C)C)C(C)OC(=O)C(C(C)CC)NC(=O)C(Cc3ccc(OCc4cn(CCOCCOCCN=[N+]=[N-])nn4)cc3)N(C)C(=O)C(C(C)CC)N1C2=O` (centres unmarked) [example 45] were, in that order, 8.70 and 8.52.
On to `CCC(C)[C@@H]1NC(=O)[C@H](Cc2ccc(O)cc2)N(C)C(=O)[C@H](C(C)CC)NC(=O)[C@@H]2CC[C@H](O)N2C(=O)[C@H](CC(C)C)NC(=O)[C@@H](NC(=O)[C@H](CCC(N)=O)NC(=O)C(C)C)[C@@H](C)OC1=O` (some centres unmarked) [example 46] (Isobutyryl-QTL[X1][Ile(3ξ)][NMeY][Ile(3ξ)]; ester 2-C), for which the pIC50 in assay [1] (hKallikrein7 IC 50, Table 11) is 8.00; in assay [2], 7.00.
On the same counts, the results for `CCC(C)[C@@H]1NC(=O)[C@H](Cc2ccc(O)cc2)N(C)C(=O)[C@H](C(C)CC)N2C(=O)C(CC[C@@H]2O)NC(=O)[C@H](CC(C)C)NC(=O)[C@@H](NC(=O)[C@H](CCC(=O)O)NC(=O)C(C)C)[C@@H](C)OC1=O` (some centres unmarked) [example 47] are 7.00 and 8.00.
Turning to `CCC(C)C(=O)N[C@@H](CCC(N)=O)C(=O)N[C@@H]1C(=O)N[C@@H](CC(C)C)C(=O)NC2CC[C@H](O)N(C2=O)[C@@H](C(C)CC)C(=O)N(C)[C@@H](Cc2ccc(O)cc2)C(=O)N[C@@H](C(C)CC)C(=O)O[C@@H]1C` (some centres unmarked) [formula III], the pIC50 was 9.40 in assay [1] (hKallikrein7 IC50, Table 10); 9.40 in assay [1] (hKallikrein7 IC 50, Table 11); 8.00 in assay [2].
Consider `CCC(C)C(=O)N[C@@H](CCC(N)=O)C(=O)N[C@@H]1C(=O)N[C@@H](CC(C)C)C(=O)N[C@H]2CC=CN(C2=O)[C@H](C(C)CC)C(=O)N(C)[C@@H](Cc2ccc(O)cc2)C(=O)N[C@@H](C(C)CC)C(=O)O[C@@H]1C` (some centres unmarked) [formula IV], for which the pIC50 in assay [1] (hKallikrein7 IC 50, Table 11) was 8.30; in assay [2], 7.15.
In the case of `CC(C)CC(=O)N[C@@H](CCC(N)=O)C(=O)N[C@@H]1C(=O)N[C@@H](CC(C)C)C(=O)N2CCC[C@@H]2C(=O)N[C@@H](Cc2ccccc2)C(=O)N(C)[C@@H](Cc2ccc(O)cc2)C(=O)N[C@@H](C(C)C)C(=O)O[C@@H]1C` [formula IX] (Isovaleryl-QTL[dP]F[NMeY]V; ester 2-C), the results for the pIC50 in assay [1] (setting [6]) and in assay [2] (setting [7]) were 9.00 and 8.00, respectively.
Consider `CCC(C)[C@@H]1NC(=O)[C@H](Cc2ccc(O)cc2)N(C)C(=O)[C@@H](C(C)CC)N2C=CC[C@H](NC(=O)[C@H](CC(C)C)NC(=O)[C@@H](NC(=O)[C@H](CCC(N)=O)NC(=O)C(C)C)[C@@H](C)OC1=O)C2=O` (some centres unmarked) [formula V], for which the pIC50 in assay [1] (hKallikrein7 IC 50, Table 11) was 8.22; in assay [2], 7.22.
With `CCC(C)[C@@H]1NC(=O)[C@H](Cc2ccc(O)cc2)N(C)C(=O)[C@H](C(C)CC)N2C(=O)C(CC[C@@H]2O)NC(=O)[C@H](CC(C)C)NC(=O)[C@@H](NC(=O)[C@H](CCC(N)=O)NC(=O)c2ccccc2)[C@@H](C)OC1=O` (some centres unmarked) [formula XIII], the figures for the pIC50 in assay [1] and in assay [2] were 9.15 and 7.52, respectively.
For `CCC(C)[C@@H]1NC(=O)[C@H](Cc2ccc(O)cc2)N(C)C(=O)[C@H](C(C)CC)N2C(=O)C(CC[C@@H]2O)NC(=O)[C@H](CC(C)C)NC(=O)[C@@H](NC(=O)[C@H](CCC(N)=O)NC(C)=O)[C@@H](C)OC1=O` (some centres unmarked) [formula XII], the pIC50 in assay [1] (hKallikrein7 IC 50, Table 11) is 8.40; in assay [2] it was 7.30.
On the same counts, the results for `CCC(C)C(=O)N[C@@H](CCC(N)=O)C(=O)N[C@@H]1C(=O)N[C@@H](CC(C)C)C(=O)N2CCC[C@H]2C(=O)N[C@@H](C(C)CC)C(=O)N(C)[C@@H](Cc2ccc(O)cc2)C(=O)N[C@@H](C(C)CC)C(=O)O[C@@H]1C` (some centres unmarked) [formula XIV] ({Butanoyl(2ξ-Me)}-QTLP[Ile(3ξ)][NMeY][Ile(3ξ)]; ester 2-C) are 6.70 and 5.57.
On to `CCC(C)[C@@H]1NC(=O)[C@H](Cc2ccc(O)cc2)N(C)C(=O)[C@H](Cc2ccccc2)N2C(=O)C(CC[C@@H]2O)NC(=O)[C@H](CC(C)C)NC(=O)[C@@H](NC(=O)[C@H](CCCNC(N)=O)NC(=O)C(C)C)[C@@H](C)OC1=O` (some centres unmarked) [formula XV], for which the pIC50 was 8.40 in assay [1] (hKallikrein7 IC 50, Table 11) and 7.10 in assay [2].
`CC(C)CC(=O)N[C@@H](CCC(N)=O)C(=O)N[C@@H]1C(=O)N[C@@H](CC(C)C)C(=O)N2CCC[C@@H]2C(=O)N[C@@H](Cc2ccccc2)C(=O)N[C@@H](Cc2ccc(O)cc2)C(=O)N[C@@H](C(C)C)C(=O)O[C@@H]1C` [formula X] (Isovaleryl-QTL[dP]FYV; ester 2-C): the values for the pIC50 in assay [1] (setting [6]) and in assay [2] (setting [7]) were 7.70 and 6.70, respectively.
